pIC50: −log10 of the molar value.
System: HUVEC/MSC spheroids viability
Assay: Human HUVEC/MSC cell line growth inhibition [KRAS2];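 as to viability, T/C: percent of DMSO vehicle control luminescence so 100% = untreated viability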
Settings: for pIC50: curve of first compound; for viability, T/C: stronger effect = lower value
How it was run: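 HUVEC + hMSC stromal spheroids only, no malignant cells; 37 °C, 5% CO2. Drugs singly and in pairs, half-log series down from clinical Cmax (max 10 microM if Cmax undetermined).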

[1] = second compound 0.00949 µM, first compound 0.0316 µM
[2] = second compound 0.00949 µM, first compound 0.1 µM
[3] = second compound 0.03 µM, first compound 0.0316 µM
[4] = second compound 0.03 µM, first compound 0.1 µM
[5] = second compound 0.0949 µM, first compound 0.0316 µM
[6] = second compound 0.0949 µM, first compound 0.1 µM
[7] = second compound 0.3 µM, first compound 0.0316 µM
[8] = second compound 0.3 µM, first compound 0.1 µM
[9] = second compound 0.949 µM, first compound 0.0316 µM
[10] = second compound 0.949 µM, first compound 0.1 µM
[11] = second compound 3 µM, first compound 0.0316 µM
[12] = second compound 3 µM, first compound 0.1 µM

CC(C)NCC(C(=O)N1CCN(c2ncnc3c2C(C)CC3O)CC1)c1ccc(Cl)cc1 (centres undefined) + C=CC(=O)N1CCN(c2nc(OCC3CCCN3C)nc3c2CCN(c2cccc4cccc(C)c24)C3)CC1CC#N
pIC50 (second compound 0.00949 µM): < 5.00 | pIC50 (second compound 0.03 µM): < 5.00 | pIC50 (second compound 0.0949 µM): < 5.00 | pIC50 (second compound 0.3 µM): 5.21 | pIC50 (second compound 0.949 µM): < 5.00 | pIC50 (second compound 3 µM): < 5.00 | viability, T/C [1]: 102% | viability, T/C [2]: 92.3% | viability, T/C (second compound 0.00949 µM, first compound 0.316 µM): 98.8% | viability, T/C (second compound 0.00949 µM, first compound 1 µM): 66.7% | viability, T/C (second compound 0.00949 µM, first compound 3.16 µM): 67.7% | viability, T/C (second compound 0.00949 µM, first compound 10 µM): 57.2% | viability, T/C [3]: 85.8% | viability, T/C [4]: 91.8% | viability, T/C (second compound 0.03 µM, first compound 0.316 µM): 94.8% | viability, T/C (second compound 0.03 µM, first compound 1 µM): 61.3% | viability, T/C (second compound 0.03 µM, first compound 3.16 µM): 65.4% | viability, T/C (second compound 0.03 µM, first compound 10 µM): 46.1% | viability, T/C [5]: 95.4% | viability, T/C [6]: 97.5% | viability, T/C (second compound 0.0949 µM, first compound 0.316 µM): 78.2% | viability, T/C (second compound 0.0949 µM, first compound 1 µM): 79.8% | viability, T/C (second compound 0.0949 µM, first compound 3.16 µM): 53.4% | viability, T/C (second compound 0.0949 µM, first compound 10 µM): 57.4% | viability, T/C [7]: 77.7% | viability, T/C [8]: 84.8% | viability, T/C (second compound 0.3 µM, first compound 0.316 µM): 84% | viability, T/C (second compound 0.3 µM, first compound 1 µM): 71.8% | viability, T/C (second compound 0.3 µM, first compound 3.16 µM): 56.4% | viability, T/C (second compound 0.3 µM, first compound 10 µM): 45.6% | viability, T/C [9]: 67.4% | viability, T/C [10]: 82.2% | viability, T/C (second compound 0.949 µM, first compound 0.316 µM): 68.6% | viability, T/C (second compound 0.949 µM, first compound 1 µM): 58% | viability, T/C (second compound 0.949 µM, first compound 3.16 µM): 57.8% | viability, T/C (second compound 0.949 µM, first compound 10 µM): 56% | viability, T/C [11]: 83.4% | viability, T/C [12]: 74.5% | viability, T/C (second compound 3 µM, first compound 0.316 µM): 81.2% | viability, T/C (second compound 3 µM, first compound 1 µM): 68.5% | viability, T/C (second compound 3 µM, first compound 3.16 µM): 49.3% | viability, T/C (second compound 3 µM, first compound 10 µM): 51.9%

CC(C)n1nc(-c2ccc3oc(N)nc3c2)c2c(N)ncnc21 + C=CC(=O)N1CCN(c2nc(OCC3CCCN3C)nc3c2CCN(c2cccc4cccc(C)c24)C3)CC1CC#N
pIC50 (second compound 0.00949 µM): 8.20 | pIC50 (second compound 0.03 µM): 8.17 | pIC50 (second compound 0.0949 µM): 8.36 | pIC50 (second compound 0.3 µM): 8.47 | pIC50 (second compound 0.949 µM): 9.29 | pIC50 (second compound 3 µM): 7.65 | viability, T/C (second compound 0.00949 µM, first compound 0.000316 µM): 80.6% | viability, T/C (second compound 0.00949 µM, first compound 0.001 µM): 64.1% | viability, T/C (second compound 0.00949 µM, first compound 0.00316 µM): 56.1% | viability, T/C (second compound 0.00949 µM, first compound 0.01 µM): 43.1% | viability, T/C [1]: 48.3% | viability, T/C [2]: 39.8% | viability, T/C (second compound 0.03 µM, first compound 0.000316 µM): 69.5% | viability, T/C (second compound 0.03 µM, first compound 0.001 µM): 65.7% | viability, T/C (second compound 0.03 µM, first compound 0.00316 µM): 44.1% | viability, T/C (second compound 0.03 µM, first compound 0.01 µM): 54.1% | viability, T/C [3]: 46.8% | viability, T/C [4]: 42% | viability, T/C (second compound 0.0949 µM, first compound 0.000316 µM): 80.1% | viability, T/C (second compound 0.0949 µM, first compound 0.001 µM): 64.7% | viability, T/C (second compound 0.0949 µM, first compound 0.00316 µM): 48.4% | viability, T/C (second compound 0.0949 µM, first compound 0.01 µM): 49% | viability, T/C [5]: 41.1% | viability, T/C [6]: 40.8% | viability, T/C (second compound 0.3 µM, first compound 0.000316 µM): 59.7% | viability, T/C (second compound 0.3 µM, first compound 0.001 µM): 67.6% | viability, T/C (second compound 0.3 µM, first compound 0.00316 µM): 50.5% | viability, T/C (second compound 0.3 µM, first compound 0.01 µM): 43.5% | viability, T/C [7]: 40.5% | viability, T/C [8]: 36% | viability, T/C (second compound 0.949 µM, first compound 0.000316 µM): 57.5% | viability, T/C (second compound 0.949 µM, first compound 0.001 µM): 47.5% | viability, T/C (second compound 0.949 µM, first compound 0.00316 µM): 42.7% | viability, T/C (second compound 0.949 µM, first compound 0.01 µM): 34.5% | viability, T/C [9]: 44.6% | viability, T/C [10]: 44.3% | viability, T/C (second compound 3 µM, first compound 0.000316 µM): 62.5% | viability, T/C (second compound 3 µM, first compound 0.001 µM): 66.8% | viability, T/C (second compound 3 µM, first compound 0.00316 µM): 54.1% | viability, T/C (second compound 3 µM, first compound 0.01 µM): 58.6% | viability, T/C [11]: 45.3% | viability, T/C [12]: 40.7%

— PubChem BioAssay AID2060912 (Molecular Pharmacology Branch, DTP, NCI, 2025)
